The test system of this assay is BAD translocation to mitochondria in NIH-3T3 cells. The assay is described as follows: Confocal imaging of BAD-mCitrine translocation to TMRE-labeled mitochondria in NIH-3T3. Format: cell-based. As to conditions: NIH-3T3 expressing BAD-mCitrine; R18 10 µM, FTY720 2 µM; 24 h. The procedure:
To visualize BAD translocation, 35 mm glass-bottom dishes (ibidi, Gräfelfing, Germany; #81158) were coated with 0.1 mg/mL Poly-D-lysine hydrobromide for 2 h at 37 °C. After coating, dishes were washed twice with sterilized water. Subsequently, cells transfected with BAD-mCitrine were seeded at a density of 20,000 cells per dish and incubated for 24 h to allow for cell attachment. For live-cell imaging, cells were then incubated for 1 h with the mitochondrial membrane potential dye tetramethylrhodamine ethyl ester (TMRE, Invitrogen; #T668) at a final concentration of 100 nM, according to the manufacturer’s instructions. Images were acquired on a Zeiss (Oberkochen, Germany) LSM-900 Airyscan inverted confocal microscope equipped with an environmental incubation system, laser lines including 488 and 561 nm, and an oil immersion 60×/1.40 Plan achromat objective. The signal from the YFP fluorophore (ex. 488 nm, det. 525–542 nm) and the TMRE (ex. 561 nm, det. 600–700 nm) were collected in super-resolution mode. The cell viability dye, DRAQ (BioLegend, California, USA; #424101), was added to the medium at a 1:1000 dilution from the commercial stock and incubated at room temperature for 30 min prior to live-cell imaging. To quantify the colocalization of BAD-mCitrine and the mitochondria labeled with the TMRE, the JACoP plugin in ImageJ was employed. […]

Take `CCCCCCCCc1ccc(CCC(N)(CO)CO)cc1` [Fingolimod (FTY720), Fingolimod]: the “BAD translocation to TMRE-labeled mitochondria” value is “promoted BAD translocation”.

The values are drawn from PMC12603070, “A high-throughput screening approach to discover potential colorectal cancer chemotherapeutics: repurposing drugs to identify novel disruptors of 14-3-3 proteins” (Cell Death & Disease, 2025).
